Assay results from ChEMBL document CHEMBL1144998, “C(8) substituted 1-azabicyclo[3.3.1]non-3-enes and C(8) substituted 1-azabicyclo[3.3.1]nonan-4-ones: novel muscarinic receptor antagonists” (J Med Chem, 2003).

Tests used:
[1] = target: T1, Muscarinic acetylcholine receptor M1 (Homo sapiens, UniProt P11229); assay: Binding affinity of compound was determined towards human Muscarinic acetylcholine receptor M1 using [3H]QNB radioligand
T1 sequence (P11229 whole entry): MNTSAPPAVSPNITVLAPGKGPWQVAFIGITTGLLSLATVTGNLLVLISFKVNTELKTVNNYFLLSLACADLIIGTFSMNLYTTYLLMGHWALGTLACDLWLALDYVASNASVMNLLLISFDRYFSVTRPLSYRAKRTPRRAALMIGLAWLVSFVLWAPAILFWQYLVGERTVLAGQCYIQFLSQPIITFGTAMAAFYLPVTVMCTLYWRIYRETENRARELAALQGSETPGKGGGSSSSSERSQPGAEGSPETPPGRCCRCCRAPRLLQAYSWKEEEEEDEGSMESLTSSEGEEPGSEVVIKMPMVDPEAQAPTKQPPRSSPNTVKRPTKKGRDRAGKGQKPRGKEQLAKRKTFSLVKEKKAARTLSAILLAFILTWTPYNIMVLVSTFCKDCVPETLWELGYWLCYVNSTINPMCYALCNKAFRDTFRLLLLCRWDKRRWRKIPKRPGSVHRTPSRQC

[2] = target: T2, Muscarinic acetylcholine receptor M4 (Homo sapiens, UniProt P08173); assay: Binding affinity of compound was determined towards human Muscarinic acetylcholine receptor M4 using [3H]QNB radioligand
T2 sequence (P08173 whole entry): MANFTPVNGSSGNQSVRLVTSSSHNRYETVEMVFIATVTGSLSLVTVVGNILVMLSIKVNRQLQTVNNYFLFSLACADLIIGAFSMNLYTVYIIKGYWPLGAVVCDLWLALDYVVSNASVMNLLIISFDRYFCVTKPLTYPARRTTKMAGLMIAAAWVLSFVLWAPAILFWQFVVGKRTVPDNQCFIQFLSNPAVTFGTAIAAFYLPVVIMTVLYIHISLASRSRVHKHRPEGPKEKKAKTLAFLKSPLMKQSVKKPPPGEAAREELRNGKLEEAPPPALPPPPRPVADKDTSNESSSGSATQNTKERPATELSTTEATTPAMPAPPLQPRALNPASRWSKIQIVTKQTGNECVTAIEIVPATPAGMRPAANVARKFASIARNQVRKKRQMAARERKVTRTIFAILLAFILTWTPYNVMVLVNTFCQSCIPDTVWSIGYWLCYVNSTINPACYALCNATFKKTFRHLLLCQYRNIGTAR

[3] = target: T3, Muscarinic acetylcholine receptor M2 (Homo sapiens, UniProt P08172); assay: Binding affinity of compound was determined towards human Muscarinic acetylcholine receptor M2 using [3H]QNB radioligand
T3 sequence (P08172 whole entry): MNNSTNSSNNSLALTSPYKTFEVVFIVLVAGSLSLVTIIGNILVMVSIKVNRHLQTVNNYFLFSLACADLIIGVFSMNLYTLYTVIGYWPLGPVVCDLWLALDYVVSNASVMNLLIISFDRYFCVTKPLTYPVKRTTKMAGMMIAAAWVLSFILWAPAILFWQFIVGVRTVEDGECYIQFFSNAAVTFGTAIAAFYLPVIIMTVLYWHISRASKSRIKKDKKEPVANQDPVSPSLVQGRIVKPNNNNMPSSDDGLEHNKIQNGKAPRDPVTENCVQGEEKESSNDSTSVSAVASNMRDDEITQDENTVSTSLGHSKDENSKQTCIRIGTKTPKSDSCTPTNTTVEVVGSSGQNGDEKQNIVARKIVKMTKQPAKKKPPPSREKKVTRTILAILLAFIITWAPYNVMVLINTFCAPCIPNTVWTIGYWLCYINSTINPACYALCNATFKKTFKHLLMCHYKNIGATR

[4] = target: T4, Muscarinic acetylcholine receptor M5 (Homo sapiens, UniProt P08912); assay: Binding affinity of compound was determined towards human Muscarinic acetylcholine receptor M5 using [3H]QNB radioligand
T4 sequence (P08912 whole entry): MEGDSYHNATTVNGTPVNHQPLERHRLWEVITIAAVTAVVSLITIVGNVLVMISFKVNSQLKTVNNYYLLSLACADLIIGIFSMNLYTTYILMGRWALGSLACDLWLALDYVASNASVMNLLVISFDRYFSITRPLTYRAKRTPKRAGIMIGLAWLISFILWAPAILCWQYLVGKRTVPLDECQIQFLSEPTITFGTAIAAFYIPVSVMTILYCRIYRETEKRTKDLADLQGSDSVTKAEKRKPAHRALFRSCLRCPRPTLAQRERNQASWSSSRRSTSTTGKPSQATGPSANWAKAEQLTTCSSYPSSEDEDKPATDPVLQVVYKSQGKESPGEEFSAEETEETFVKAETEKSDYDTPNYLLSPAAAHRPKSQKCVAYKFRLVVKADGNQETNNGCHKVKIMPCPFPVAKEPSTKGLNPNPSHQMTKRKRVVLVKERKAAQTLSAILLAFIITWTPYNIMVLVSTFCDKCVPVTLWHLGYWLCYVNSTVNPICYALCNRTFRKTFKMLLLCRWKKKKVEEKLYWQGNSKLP

[5] = target: Muscarinic acetylcholine receptor M3 (Homo sapiens, UniProt P20309); assay: Binding affinity of compound was determined towards human Muscarinic acetylcholine receptor M3 using [3H]QNB radioligand
Sequence of Muscarinic acetylcholine receptor M3 (P20309 whole entry): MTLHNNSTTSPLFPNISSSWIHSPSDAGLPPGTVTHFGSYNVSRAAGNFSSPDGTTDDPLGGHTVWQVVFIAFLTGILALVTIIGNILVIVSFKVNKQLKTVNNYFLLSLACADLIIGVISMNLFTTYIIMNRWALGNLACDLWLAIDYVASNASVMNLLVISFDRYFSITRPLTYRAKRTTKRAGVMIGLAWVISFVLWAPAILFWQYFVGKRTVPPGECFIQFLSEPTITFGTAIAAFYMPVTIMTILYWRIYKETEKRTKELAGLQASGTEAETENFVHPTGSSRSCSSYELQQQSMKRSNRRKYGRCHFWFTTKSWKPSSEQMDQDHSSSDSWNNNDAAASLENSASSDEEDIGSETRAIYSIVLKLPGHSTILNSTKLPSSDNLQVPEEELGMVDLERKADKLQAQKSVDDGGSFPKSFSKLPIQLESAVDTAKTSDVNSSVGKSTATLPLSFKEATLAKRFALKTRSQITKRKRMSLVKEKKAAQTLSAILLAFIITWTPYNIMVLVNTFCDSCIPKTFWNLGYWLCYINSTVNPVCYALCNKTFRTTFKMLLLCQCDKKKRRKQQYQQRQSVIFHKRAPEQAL

| Structure (SMILES) | Ki [1] [nM] | Ki [2] [nM] | Ki [3] [nM] | Ki [4] [nM] | Ki [5] [nM] |
| --- | --- | --- | --- | --- | --- |
| CCO/C(O)=C1\CN2CC(CCC2COCc2ccccc2)C1=O (stereo in doubt; 4) | 6600 | 11000 | 4100 | 3000 | 7500 |
| CCO/C(O)=C1\CN2CC(CCC2CN(C)C)C1=O (stereo in doubt; 6) | – | – | > 100000 | – | 37000 |
| CCO/C(O)=C1\CN2CC(CCC2CN(C)C)C1=O (stereo in doubt; 5) | > 100000 | > 100000 | 86000 | > 100000 | > 100000 |
| CCO/C(O)=C1\CN2CCCC(C2)C1=O (configuration not stated) | 1200 | 2600 | 1600 | 980 | 1500 |
| CCO/C(O)=C1\CN2CC(CCC2COCc2ccccc2)C1=O (stereo in doubt; 3) | 250 | 270 | 80 | 560 | 840 |
